Source: US6069167A, “Use of antioxidant agents to treat cholestatic liver disease” (priority 1997, dated 2000)

What was measured:
Assay type in all cases: in vivo, male Sprague-Dawley rats
hepatic toxicity (liver) = experiment: Dose response of intravenous TCDC and hepatic toxicity (serum AST, ALT, bilirubin, alkaline phosphatase); details: for Serum ALT / Serum AST: mean ± SEM, n = 4
Text: (§1) Young adult male Sprague-Dawley rats (150-180 gram weight) purchased from Sasco, Inc. (Omaha, Nebr.) were fed Purina Lab Chow (Ralston Purina Co., Chicago, Ill.) ad libitum for 2-3 weeks and housed in polyethylene cages with stainless steel tops on a 12-hour light-dark cycle. All rats received humane care in compliance with the guidelines of the Animal Use in Research Committee of the University of Colorado Health Sciences Center. Rats were then randomly assigned (4-5 per group) to receive 0 (vehicle only), 5, 10, or 20 μmol of taurochenodeoxycholic acid (TCDC)/100 gram body weight. TCDC is a conjugate of the bile acid most implicated in cholestatic liver injury9,11,12. TCDC was solubilized in 5% dextrose, 10% BSA, and 0.45% normal saline. TCDC was administered while rats were under light methoxyflurane anesthesia as an intravenous bolus of the desired dose in 1 to 2 minutes through the tail vein. TCDC dosing was performed between 7 and 9 am. Rats recovered from the injection uneventfully and blood was obtained at 0, 4, 8, 12 and 24 hours after the injection for determination of AST, ALT total bilirubin and alkaline phosphatase by an automated chemical analyzer (Hitachi 747 Chemical Analyzer).

[1] = Serum bile acid concentrations four hours after intravenous TCDC by GC-MS
Text: as §1
(§2) Because serum AST and ALT concentrations peaked at 4 hours, further evaluation of liver injury was performed at that time point Total concentrations (conjugated+free bile acids) of individual bile acids were measured in serum obtained at 4 hours by gas chromatography-mass spectroscopy (GC-MS), as previously described^30. Briefly, after serum samples were extracted with the addition of the internal standard 7-alpha, 12-alpha, dihydroxy-5 beta cholanic acid, trimethylsilyl esterification was performed. Individual bile acids were then quantified by GC or GC-MS using a Hewlett-Packard 5790 flame ionization detector equipped with a 30 meter DB-1 capillary column with internal diameter of 0.25 mm and a film thickness of 0.25 micrometers (J & W Scientific, Folsom, Calif.). For GC-MS measurements, a Hewlett-Packard 5970-A mass selective detector operating in selective ion monitoring mode was used. Results were expressed as μmol/L for each individual bile acid.

hepatic mitochondria = experiment: Lipid-conjugated dienes of hepatic mitochondria (lipid peroxidation)
Description: Hepatic Mitochondria Isolation
Mitochondria were isolated from 10 grams of fresh liver from individual rats by a modification of a previously described method^27. Briefly, the liver was gently homogenized in a loose-fitting Potter-Elvehjm homogenizer in buffer containing 225 mM mannitol, 70 mM sucrose, 3 mM KH2 PO4, 2mM EDTA, 0.1% BSA, 5 mM MgCl2 (pH 7.0), filtered through cheesecloth and centrifuged at 400g×10 minutes. The supernatant was centrifuged at 10,000g for 10 minutes. The supernatant was aspirated and the pellet resuspended and centrifuged at 10,000g for 10 minutes. The resulting mitochondrial pellet was resuspended in 15 ml of buffer, divided into three tubes and added to digitonin (Sigma Chemical Company, St Louis, Mo., 0.29 mg for each gram of original liver) on wet ice×20 minutes, in order to minimize any contamination by lysosomes^28. The resulting mitochondrial preparation was washed two times in the original buffer and centrifuged at 10,000g for 10 minutes. Samples of the pellet were taken for enzyme marker analysis. Two more washes were then performed using a buffer containing 50 mM MOPS/100 mM KCI, yielding the final mitochondrial pellet.
Fresh mitochondria were analyzed for lipid peroxidation as an index of oxidant damage by the lipid-conjugated diene method of Recknagel and Ghoshal^35 with the modification of Bacon et al^36. Briefly, lipids were extracted from mitochondria pellets with chloroform and methanol (2:1, vol/vol), and the lipid in chloroform was dried under a stream of oxygen-free nitrogen^27. The dried lipid was redissolved in 1.5 ml of spectrophotometric grade cyclohexane. Absorbance from 220 to 275 nm was recorded against a cyclohexane blank on a Lambda 2 UV/is Spectrometer (Perkin-Elmer Corp., Norwalk, Conn.). Lipid concentration was approximately 0.5 mg/mi of cyclohexane. After the UV measurements, a 250 μl aliquot from each sample was analyzed for total lipid content by the method of Chiang et al.^37, and absorbance measurements were normalized to a denominator of 1.0 mg lipid per ml of cyclohexane. Lipid peroxidation was estimated by calculating the difference in absorption at 233 nm (the peak absorbance for conjugated dienes) between each rat and the mean of the values from control rats.
as §2
Rats were divided into two treatment groups. One group was pretreated with parenteral Vitamin E (all-rac-alpha tocopherol, Ephynal, Hoffmann-LaRoche,Nutley, N.J.). The other group was not pretreated. […]

[2] = i.v. bolus TCDC in rats, data not shown
[3] = i.v. bolus TCDC in rats, dose-dependent
[4] = 4 h after i.v. TCDC 10 μmol/100 gram, mean ± SEM, n = 5, P < 0.05 versus vehicle
[5] = 4 h after i.v. TCDC 10 μmol/100 gram, mean ± SEM, n = 5, conjugates plus unconjugates

SMILES: C[C@H](CCC(=O)NCCS(=O)(=O)O)[C@H]1CC[C@H]2[C@@H]3[C@H](O)C[C@@H]4C[C@H](O)CC[C@]4(C)[C@H]3CC[C@]12C [TCDC, taurochenodeoxycholic acid]
- Serum ALT (hepatic toxicity (liver); TCDC dose 5 i.v., 0 h): 52 ± 6 IU/L
- Serum AST (hepatic toxicity (liver); TCDC dose 5 i.v., 0 h): 73 ± 9 IU/L
- Serum ALT (hepatic toxicity (liver); TCDC dose 5 i.v., 4 h): 92 ± 23 IU/L
- Serum AST (hepatic toxicity (liver); TCDC dose 5 i.v., 4 h): 121 ± 24 IU/L
- Serum ALT (hepatic toxicity (liver); TCDC dose 5 i.v., 8 h): 88 ± 12 IU/L
- Serum AST (hepatic toxicity (liver); TCDC dose 5 i.v., 8 h): 110 ± 12 IU/L
- Serum ALT (hepatic toxicity (liver); TCDC dose 5 i.v., 12 h): 70 ± 7 IU/L
- Serum AST (hepatic toxicity (liver); TCDC dose 5 i.v., 12 h): 105 ± 12 IU/L
- Serum ALT (hepatic toxicity (liver); TCDC dose 5 i.v., 24 h): 72 ± 7 IU/L
- Serum AST (hepatic toxicity (liver); TCDC dose 5 i.v., 24 h): 89 ± 3.5 IU/L
- Serum ALT (hepatic toxicity (liver); TCDC dose 10 i.v., 0 h): 53 ± 3 IU/L
- Serum AST (hepatic toxicity (liver); TCDC dose 10 i.v., 0 h): 92 ± 8 IU/L
- Serum ALT (hepatic toxicity (liver); TCDC dose 10 i.v., 4 h): 1855 ± 701 IU/L
- Serum AST (hepatic toxicity (liver); TCDC dose 10 i.v., 4 h): 3679 ± 1105 IU/L
- Serum ALT (hepatic toxicity (liver); TCDC dose 10 i.v., 8 h): 1963 ± 701 IU/L
- Serum AST (hepatic toxicity (liver); TCDC dose 10 i.v., 8 h): 2233 ± 1906 IU/L
- Serum ALT (hepatic toxicity (liver); TCDC dose 10 i.v., 12 h): 492 ± 291 IU/L
- Serum AST (hepatic toxicity (liver); TCDC dose 10 i.v., 12 h): 605 ± 249 IU/L
- Serum ALT (hepatic toxicity (liver); TCDC dose 10 i.v., 24 h): 198 ± 82 IU/L
- Serum AST (hepatic toxicity (liver); TCDC dose 10 i.v., 24 h): 328 ± 82 IU/L
- Serum ALT (hepatic toxicity (liver); TCDC dose 20 i.v., 0 h): 64 ± 9 IU/L
- Serum AST (hepatic toxicity (liver); TCDC dose 20 i.v., 0 h): 70 ± 6 IU/L
- Serum ALT (hepatic toxicity (liver); TCDC dose 20 i.v., 4 h): 1712 ± 554 IU/L
- Serum AST (hepatic toxicity (liver); TCDC dose 20 i.v., 4 h): 1456 ± 748 IU/L
- Serum ALT (hepatic toxicity (liver); TCDC dose 20 i.v., 8 h): 1238 ± 257 IU/L
- Serum AST (hepatic toxicity (liver); TCDC dose 20 i.v., 8 h): 2057 ± 939 IU/L
- Serum ALT (hepatic toxicity (liver); TCDC dose 20 i.v., 12 h): 851 ± 167 IU/L
- Serum AST (hepatic toxicity (liver); TCDC dose 20 i.v., 12 h): 1282 ± 375 IU/L
- Serum ALT (hepatic toxicity (liver); TCDC dose 20 i.v., 24 h): 362 ± 75 IU/L
- Serum AST (hepatic toxicity (liver); TCDC dose 20 i.v., 24 h): 399 ± 41 IU/L
- Time of peak serum AST and ALT after injection (hepatic toxicity (liver); i.v. bolus TCDC in rats): 4 h
- Serum alkaline phosphatase, change (hepatic toxicity (liver); [2]): no significant changes
- Total serum bilirubin, change (hepatic toxicity (liver); [2]): no significant changes
- Serum ALT concentration, change (hepatic toxicity (liver); [3]): significant rise
- Serum AST concentration, change (hepatic toxicity (liver); [3]): significant rise
- Serum individual bile acids, change versus vehicle ([1]; 4 h after i.v. TCDC 10 μmol/100 gram): significant increases in most bile acids
- Serum alpha-muricholic acid concentration [1, 4]: 77.4 ± 15.9 µmol/L
- Serum beta-muricholic acid concentration [1, 4]: 12.4 ± 3.3 µmol/L
- Serum cholic acid concentration [1, 4]: 134.8 ± 30.2 µmol/L
- Serum total bile acids concentration [1, 4]: 277.8 ± 49.0 µmol/L
- Serum deoxycholic acid concentration [1, 5]: 4.8 ± 1.2 µmol/L
- Serum lithocholic acid concentration [1, 5]: 0.6 ± 0.2 µmol/L
- Serum ursodeoxycholic acid concentration [1, 5]: 4.4 ± 0.4 µmol/L
- CDC concentrations, change ([1]; in vivo model, TCDC): elevated to a similar extent as the other bile acids
- Lithocholate conjugates, change ([1]; in vivo model, TCDC): lack of substantial elevation
- Hepatic mitochondrial lipid-conjugated dienes, change versus vehicle (hepatic mitochondria; 4 h after TCDC 10 μmol/100 gram): significant elevations
- Lipid-conjugated dienes (hepatic mitochondria; Control/TCDC, n = 13, 4 h): 0.24 ± 0.02 delta abs. 233 nm/mg lipid
